Source: ChEMBL document CHEMBL4480383, “Synthesis of saccharocin from apramycin and evaluation of its ribosomal selectivity” (Medchemcomm, 2019)
Values after ≈ are worked out from the molar mass of the structure shown.

Key:
Bacterial 70S ribosome = test: Antiribosomal activity against wild type bacterial ribosomes assessed as inhibition of luciferase production by cell-free translation assay; format: subcellular, Bacteria
[1] = Antiribosomal activity against humanized bacterial ribosome incorporating complete decoding A site from human mitochondrial ribosome Mit13 assessed as inhibition of luciferase production by cell-free translation assay
[2] = Antiribosomal activity against humanized bacterial ribosome incorporating A1555G mutant of human mitochondrial ribosome assessed as inhibition of luciferase production by cell-free translation assay
[3] = Antiribosomal activity against humanized bacterial ribosome incorporating human cytoplasmic ribosome Cyt14 assessed as inhibition of luciferase production by cell-free translation assay
[4] = Selectivity ratio of IC50 for antiribosomal activity against humanized bacterial ribosome incorporating complete decoding A site from human mitochondrial ribosome Mit13 to IC50 for antiribosomal activity against wild type bacterial ribosomes
[5] = Selectivity ratio of IC50 for antiribosomal activity against humanized bacterial ribosome incorporating A1555G mutant of human mitochondrial ribosome to IC50 for antiribosomal activity against wild type bacterial ribosomes
[6] = Selectivity ratio of IC50 for antiribosomal activity against humanized bacterial ribosome incorporating human cytoplasmic ribosome Cyt14 to IC50 for antiribosomal activity against wild type bacterial ribosomes
Escherichia coli = test: Antibacterial activity against Escherichia coli AG001; format: functional
Klebsiella pneumoniae = test: Antibacterial activity against Klebsiella pneumoniae AG215; format: functional
Enterobacter cloacae = test: Antibacterial activity against Enterobacter cloacae AG290; format: functional
Acinetobacter baumannii = test: Antibacterial activity against Acinetobacter baumannii AG309; format: functional
Pseudomonas aeruginosa = test: Antibacterial activity against Pseudomonas aeruginosa AG220; format: functional
Staphylococcus aureus = test: Antibacterial activity against Methicillin-resistant Staphylococcus aureus AG038; format: functional

SMILES | IC50 (Bacterial 70S ribosome) [nM] | IC50 [1] [µg/mL] | IC50 [2] [µg/mL] | IC50 [3] [µg/mL] | Ratio IC50 [4] | Ratio IC50 [5] | Ratio IC50 [6] | Activity (Escherichia coli) [µg/mL] | Activity (Klebsiella pneumoniae) [µg/mL] | Activity (Enterobacter cloacae) [µg/mL] | Activity (Acinetobacter baumannii) [µg/mL] | Activity (Pseudomonas aeruginosa) [µg/mL] | Activity (Staphylococcus aureus) [µg/mL]
CN[C@@H]1[C@@H](O[C@H]2O[C@H](CO)[C@@H](O)[C@H](O)[C@H]2O)O[C@H]2C[C@@H](N)[C@@H](O[C@H]3[C@H](O)[C@@H](O)[C@H](N)C[C@@H]3N)O[C@@H]2[C@@H]1O | 296 | > 500 | 307 (≈ 568 µM) | 437 (≈ 808 µM) | > 3120 | 1920 | 2730 | 8 to 16 | 4 | 4 to 8 | 8 | 8 to 16 | 32
CN[C@@H]1[C@@H](O[C@H]2O[C@H](CO)[C@@H](N)[C@H](O)[C@H]2O)O[C@H]2C[C@@H](N)[C@@H](O[C@H]3[C@H](O)[C@@H](O)[C@H](N)C[C@@H]3N)O[C@@H]2[C@@H]1O | 145 | 67 (≈ 124 µM) | 40 (≈ 74.1 µM) | 69 (≈ 128 µM) | 859 | 513 | 885 | 4 | 1 to 2 | 2 to 4 | 4 | 4 | 4
